Assay results reported in patent US20210308120A1, “Use of Amitriptyline for Blocking Brain Hemichannels and Method for Potentiating its Effect in Vivo” (THERANEXUS, priority 2015, published 2021).
Entries after “also recorded” stand apart in the source; their conditions may differ.

Assays:
Cx43 hemichannels = biological target: T1, Cx43 hemichannels (Mus musculus, UniProt P23242); experiment: Hemichannel activity by ethidium bromide uptake in LPS-treated mouse cortical astrocyte cultures; type: cell-based; conditions: 24 hours; for HC activity (ethidium bromide uptake) after LPS-induced opening: LPS 1 μg/mL and mefloquine or MFA 10 μM; for Degree of Cx43 hemichannel inhibition, MFA compared with mefloquine: both 10 μM, LPS 1 μg/mL
T1 construct: Astrocyte cultures were prepared from cortex of rats and mice as previously described; endogenous in cells; host or cells: secondary cultures of mouse cortical astrocytes, LPS-treated
T1 sequence (P23242 whole entry): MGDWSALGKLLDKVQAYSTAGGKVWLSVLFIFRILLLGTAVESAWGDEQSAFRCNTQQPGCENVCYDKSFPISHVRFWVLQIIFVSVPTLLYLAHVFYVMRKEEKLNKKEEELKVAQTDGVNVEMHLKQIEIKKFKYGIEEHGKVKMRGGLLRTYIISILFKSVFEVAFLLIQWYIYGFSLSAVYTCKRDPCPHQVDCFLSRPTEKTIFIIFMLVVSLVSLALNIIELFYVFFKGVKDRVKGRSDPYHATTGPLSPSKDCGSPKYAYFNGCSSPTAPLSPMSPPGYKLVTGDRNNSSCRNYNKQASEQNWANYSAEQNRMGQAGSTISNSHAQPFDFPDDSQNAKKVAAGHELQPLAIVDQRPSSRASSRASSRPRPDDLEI
Experimental: Astrocyte cultures were prepared from cortex of rats and mice as previously described (Meme et al., 2006). Cells were seeded on polyornithine coated 35 mm dishes (5×10^5 cells/dish) or into 100-mm diameter plastic dishes at the density of 3×10^6 cells/dish. After 8-10 days, when cells grown into 35 mm in diameter plastic culture dishes have reached confluence, 1 μM of cytosine-arabinoside was added to the culture medium. In addition, when cells grown into 100 mm plastic culture dishes reached confluence, they were harvested with trypsin-EDTA. Then, cells were re-plated (2×10^5 cells per well), as secondary cultures, on glass coverslips placed inside 24-round-well plate. Finally, they were grown to confluence and cytosine-arabinoside was added. Medium was changed twice a week for all cells until the experiments were carried out. Hemichannel activity was evaluated in secondary cultures of cortical astrocytes by Ethidium Bromide (EtBr) uptake as already published (Orellana et al, 2011). 24 h before experiment, cells were pretreated or not with 1 μg/ml LPS known to open Cx43 HeC. The day of experiment, cells were first preincubated in HEPES buffer solution. Then, cells were exposed to 5 μM EtBr for 10 min at room temperature. Cells were then washed with the same buffer before fixation with 4% paraformaldehyde in PBS. Fixed cells were examined at 40× with a confocal laser-scanning microscope. Stacks of 10 consecutive confocal images taken at 0.49 μm intervals were acquired. For each experimental condition, 6 images were captured and then analyzed with Image J program (NIH software). LPS was added to mouse cortical astrocytic cultures during 24 hours to open Cx43 hemichannels and amitriptyline was also added during the same time to evaluate its action on hemichannel activity, quantified by cell uptake of ethidium bromide.

mice subjected to FST = experiment: Forced Swim Test (FST); type: in vivo, mouse; conditions: amitriptyline 12 mg/kg + mefloquine 1 mg/kg per os; 2nd 3-min period
Experimental: The FST is the most used rodent model for screening antidepressants (Porsolt et al, 1977). Mice were dropped individually in a glass cylinder (25 cm high, 9 cm diameter) filled with 10 cm 25° C. water. The experiment was recorded with a camcorder, placed in front of the glass cylinders. Video were scored at a later time by an experimenter blind to the treatments. The indices of depression-related behavior are the immobility time, the swimming time and the climbing time.
FST test evaluates the despair behavior which is commonly reversed by antidepressants. During FST, the swimming time of each mouse was measured on each 1-min period, on 1st and 2nd 3-min periods.

[1] = Pharmacokinetics of amitriptyline/mefloquine in plasma and brain of mice (LC-MS); type: in vivo, mouse
Experimental: Data are presented as mean±SEM.
Adult male C57BL/6J mice (Charles River, L'Arbresle, France) were used. Mice were kept in collective cages for habituation to the facility for one week before experimental testing with food and water ad libitum. Mice were maintained on a light/dark cycle of 12 hours with light onset at 8h00 and with a controlled temperature of 21° C.±1° C.
Injections were done twice.
On day 18th of treatment, mice received the morning injection and samplings were done 2 hours after the injection. Mice were anesthetized just before sampling (ketamine 68 mg/kg, xylazine 10 mg/kg) and blood was collected by intracardiac puncture (Vacuette tubes, with lithium/heparin gel). The mouse was then decapitated, and the brain extracted and fast frozen in dry ice.
Vacuette tubes with blood were centrifugated (3000 rpm, 20 min), plasma recovered and stored at −80° C. until shipping in dry ice.

[2] = system: neuropathic mice (cuff model, allodynia); experiment: Mechanical allodynia, von Frey test in sciatic nerve cuff model; type: in vivo, mouse; conditions: for Synergy with amitriptyline in vivo: combined with amitriptyline (FIGS. 7 and 11), 0.5 mg/kg
Experimental: Paw withdrawal thresholds of mice treated with either amitriptyline 6 mg/kg alone (AMIT 6) or amitriptyline 12 mg/kg alone (AMIT 12) are also shown (D). FIG. 10 (E) represents area under curve analysis.
Area under curve analysis are shown (B).
Neuropathic pain was induced to adult male C57BL/6J mice (Charles River, L'Arbresle, France) by cuffing the main branch of the right sciatic nerve (For detailed description and video illustration: Yalcin et al. 2014, J Vis Exp 89:e51608). Surgeries were performed under ketamine (68 mg/kg)/xylazine (10 mg/kg) intraperitoneal (i.p.) anesthesia (Centravet, Tadden, France). The common branch of the right sciatic nerve was exposed and a cuff of PE-20 polyethylene tubing (Harvard Apparatus, Les Ulis, France) of standardized length (2 mm) was unilaterally inserted around it (Cuff group). The shaved skin was closed using suture.
Injections were done once a day during the 17 first days of treatment, in the afternoon. As a single dose per day was ineffective, treatment was then done twice a day, morning and afternoon, from the 8 last days of treatment.
Mechanical allodynia was tested using von Frey hairs and results were expressed in grams (For detailed description and video illustration: Yalcin et al. 2014, J Vis Exp 89:e51608). Tests were done during the morning, starting at least 2 hours after lights on. Mice were placed in clear Plexiglas boxes (7 cm×9 cm×7 cm) on an elevated mesh screen. Calibrated von Frey filaments (Bioseb, Vitrolles, France) were applied to the plantar surface of each hindpaw until they just bent, in a series of ascending forces up to the mechanical threshold. Filaments were tested five times per paw and the paw withdrawal threshold was defined as the lower of two consecutive filaments for which three or more withdrawals out of the five trials were observed.
Mice were subjected to sciatic nerve cuffing and then tested with the von Frey test to evaluate allodynia quantified as pressure threshold.
Mice were subjected to sciatic nerve cuffing and then tested with the von Frey test to evaluate allodynia quantified as pressure threshold. Neuropathic mice, characterized by a decrease of pressure threshold after surgery, were then treated during 25 days and tested by the von Frey test during this period.

[3] = system: SN-CCI rats (neuropathic pain, hyperalgesia); experiment: Randall & Selitto test in SN-CCI rats, chronic 14-day administration; type: in vivo, rat; conditions: 14 days; for Potentiation of amitriptyline anti-hyperalgesic effect: combined with amitriptyline 12 mg/kg, mefloquine or MFA 0.5 mg/kg i.p. twice a day
Description: Data are the means±S.E.M. of n=8-14 rats.
Data are the means±S.E.M. of n=8-14 rats. *p<0.05, **p<0.01, ***p<0.001 as compared with “saline+saline” group at the same time, ≠p<0.05 as compared between amitriptyline groups, two-way ANOVA, Bonferroni test.
(§1) One week after their arrival, rats were anesthetized with sodium pentobarbital before exposing the common sciatic nerve. As described in Bennett's article, four chromic catgut (5-0) ligations were tied loosely proximally to the sciatic trifurcation (Bennett and Xie, 1988).
(§2) All behavioral assessments were conducted between 9 a.m. and 5 p.m. in a quiet room. An increasing pressure was applied to the right hind paw of SN-CCI (Sciatic Nerve-Chronic Constriction Injury) rat to evaluate hyperalgesia-like behavior (Viguier and al, 2013). Values correspond to the pressure threshold producing the paw withdrawal and then the vocalization of the rat.
Osmotic mini-pumps (Alzet, model 2ML2), delivering for the following 14 days amitriptyline or vehicle were subcutaneously implanted.
a) Rats were ligated on sciatic nerve and then tested with the Randall & Selitto test 14 days after surgery, to evaluate hyperalgesia quantified as pressure threshold. Neuropathic rats, characterized by a decrease of pressure threshold after surgery, were then treated during 14 days and tested by the Randall & Selitto test during this period.

[4] = system: SN-CCI rats (neuropathic pain, hyperalgesia); experiment: Randall & Selitto test in SN-CCI rats, repeated administration every 150 minutes; type: in vivo, rat; conditions: mefloquine 1 mg/kg with amitriptyline i.p. every 150 min; at 90 and 240 min
Experimental: as §1, §2

[5] = cited from earlier work
[6] = amitriptyline 12 mg/kg s.c. osmotic pump, mefloquine 0.5 mg/kg i.p. twice a day, vs saline

Question: With O[C@H](c1cc(C(F)(F)F)nc2c(C(F)(F)F)cccc12)[C@@H]1CCCCN1 (relative stereo) [mefloquine, (R*, S*)-(±)-α-2-piperidinyl-2,8-bis (trifluoromethyl)-4-quinolinemethanol] as the compound, how does the “HC activity (ethidium bromide uptake) after LPS-induced opening” value (Cx43 hemichannels) read?
Answer: reversed this effect

Question: What about the “Degree of Cx43 hemichannel inhibition, MFA compared with mefloquine” value (Cx43 hemichannels) of the same compound?
Answer: less efficient

Question: And the Swimming time (mice subjected to FST)?
Answer: able to potentiate amitriptyline 12 mg/kg

Question: And the “Concentrations in blood and brain tissue” value ([1]; amitriptyline 6, 12 mg/kg, mefloquine 0.1, 0.3, 1 mg/kg i.p., 18 days, 2 hours after injection)?
Answer: dose-dependent

Question: And the “Effect on concentrations of amitriptyline in blood and brain” value ([1]; even for the highest doses of mefloquine)?
Answer: does not induce an increase

Question: And the “Mefloquine concentrations in plasma and brain at optimal in vivo potentiation” value ([1]; mice, FIG. 12)?
Answer: micromolar scale

Question: What about the “Potentiation of amitriptyline antiallodynic effect” value ([2]; mefloquine 0.1, 0.33, 1 mg/kg i.p. with amitriptyline 6 mg/kg, 25 days) of the same compound?
Answer: significantly potentiated amitriptyline 6 mg/kg

Question: What about the “Antiallodynic effect of combination” value ([2]; mefloquine 0.1 and 0.33 mg/kg with amitriptyline 6 mg/kg) of the same compound?
Answer: antiallodynic effect similar to amitriptyline 12 mg/kg

Question: What about the “Paw withdrawal threshold (pressure)” value [3, 6] of the same compound?
Answer: did not present significant effect on both responses

Question: And the “Vocalization threshold (pressure)” value [3, 6]?
Answer: did not present significant effect on both responses

Question: And the “Potentiation of amitriptyline anti-hyperalgesic effect” value [3]?
Answer: significantly potentiated amitriptyline hyperalgesic profile from day 6 to day 14; also recorded: significantly potentiated amitriptyline hyperalgesic at day 14

Question: What about the “Potentiation of amitriptyline anti-hyperalgesic effect” value [4] of the same compound?
Answer: significantly improved the anti-hyperalgesic effect of amitriptyline

Question: For O=C(O)c1cc(C(F)(F)F)nc2c(C(F)(F)F)cccc12 [2,8-bistrifluoromethyl-4-quinoline carboxylic acid], which “Time to maximum plasma concentrations” value ([5]; in vivo) is on record?
Answer: 2 weeks

Question: What about the “Maximum plasma concentrations, higher than those of mefloquine” value ([5]; relative to mefloquine) of the same compound?
Answer: about 50%

Question: Which “HC activity (ethidium bromide uptake) after LPS-induced opening” value (Cx43 hemichannels) does the source give for Cc1ccc(Cl)c(Nc2ccccc2C(=O)O)c1Cl [MFA, meclofenamic acid] here?
Answer: reversed this effect

Question: And the “Degree of Cx43 hemichannel inhibition, MFA compared with mefloquine” value (Cx43 hemichannels)?
Answer: presented a higher inhibitor effect

Question: And the “Synergy with amitriptyline in vivo” value [2]?
Answer: not observed

Question: What about the “Potentiation of amitriptyline anti-hyperalgesic effect” value [3] of the same compound?
Answer: did not present any improved effect of amitriptyline

Question: With O=C(O)c1cccnc1Nc1cccc(C(F)(F)F)c1 [niflumic acid] as the compound, how does the “Synergy with amitriptyline in vivo” value [2] read?
Answer: not observed

Question: With hydroxymefloquine as the compound, how does the Presence as metabolite ([5]; in vivo) read?
Answer: minute quantities only
